# Measured values: ChEMBL document CHEMBL3885881, “DrugMatrix”
# Species on record: Rattus norvegicus
# Test: DrugMatrix - Regimen: Daily Repeat
# Format: toxicity, organism-based, Sprague-Dawley
# Design: regimen Daily Repeat, gender Male, age 6-8 weeks
# Conditions: in vivo, po, route oral GAVAGE, […]; for ABSOLUTE BASOPHIL / ABSOLUTE EOSINOPHIL / ABSOLUTE LYMPHOCYTE / ABSOLUTE MONOCYTE / ABSOLUTE SEGMENTED NEUTROPHIL / BASOPHIL / EOSINOPHIL / ERYTHROCYTE COUNT / HEMATOCRIT / HEMOGLOBIN / LEUKOCYTE COUNT / LYMPHOCYTE / MEAN CORPUSCULAR HEMOGLOBIN / MEAN CORPUSCULAR HEMOGLOBIN CONCENTRATION / MEAN CORPUSCULAR VOLUME / MONOCYTE / NEUTROPHIL / NUCLEATED RED BLOOD CELLS / PLATELET COUNT: tissue Blood; for ALANINE AMINOTRANSFERASE / ALBUMIN / ALKALINE PHOSPHATASE / ASPARTATE AMINOTRANSFERASE / BLOOD UREA NITROGEN / CARBON DIOXIDE / CHLORIDE / CHOLESTEROL / CREATINE PHOSPHOKINASE / CREATININE / GLUCOSE / LACTATE DEHYDROGENASE / LIPASE / PHOSPHORUS / POTASSIUM / SODIUM / TOTAL BILIRUBIN / TOTAL PROTEIN / URIC ACID: tissue Plasma
# [1] = 12 mg/kg, 120 h, dose level Low, time 5 day
# [2] = 75 mg/kg, 72 h, dose level High, time 3 day
# [3] = 75 mg/kg, 120 h, dose level High, time 5 day
smiles,measurement,setting,value
CO[C@H]1/C=C/O[C@@]2(C)Oc3c(C)c(O)c4c(O)c(c(/C=N/N5CCN(C6CCCC6)CC5)c(O)c4c3C2=O)NC(=O)/C(C)=C\C=C\[C@H](C)[C@H](O)[C@@H](C)[C@@H](O)[C@@H](C)[C@H](OC(C)=O)[C@@H]1C [RIFAPENTINE],ABSOLUTE BASOPHIL,[1],0 CELLS/uL
same,ABSOLUTE EOSINOPHIL,[1],0 CELLS/uL
same,ABSOLUTE LYMPHOCYTE,[1],14120.67 CELLS/uL
same,ABSOLUTE MONOCYTE,[1],159.67 CELLS/uL
same,ABSOLUTE SEGMENTED NEUTROPHIL,[1],1686.33 CELLS/uL
same,BASOPHIL,[1],0%
same,EOSINOPHIL,[1],0%
same,ERYTHROCYTE COUNT,[1],5.71 x10E6/uL
same,HEMATOCRIT,[1],35.8%
same,HEMOGLOBIN,[1],13.33 G/DL
same,LEUKOCYTE COUNT,[1],15.97 x10E3/uL
same,LYMPHOCYTE,[1],88.33%
same,MEAN CORPUSCULAR HEMOGLOBIN,[1],23.4 pg
same,MEAN CORPUSCULAR HEMOGLOBIN CONCENTRATION,[1],37.3 G/DL
same,MEAN CORPUSCULAR VOLUME,[1],62.73 fL
same,MONOCYTE,[1],1%
same,NEUTROPHIL,[1],10.67%
same,NUCLEATED RED BLOOD CELLS,[1],0 /100WBC
same,PLATELET COUNT,[1],1349 x10E3/uL
same,ALANINE AMINOTRANSFERASE,[1],49.33 u/L
same,ALBUMIN,[1],4.07 G/DL
same,ALKALINE PHOSPHATASE,[1],549.33 u/L
same,ASPARTATE AMINOTRANSFERASE,[1],91.67 u/L
same,BLOOD UREA NITROGEN,[1],16 mg/dL
same,CARBON DIOXIDE,[1],28 mmol/L
same,CHLORIDE,[1],102.67 MEQ/L
same,CHOLESTEROL,[1],54.33 mg/dL
same,CREATINE PHOSPHOKINASE,[1],385.33 u/L
same,CREATININE,[1],0.16 mg/dL
same,GLUCOSE,[1],167.67 mg/dL
same,LACTATE DEHYDROGENASE,[1],391.67 u/L
same,LIPASE,[1],9.67 u/L
same,PHOSPHORUS,[1],11.2 mg/dL
same,POTASSIUM,[1],6.39 MEQ/L
same,SODIUM,[1],142.5 MEQ/L
same,TOTAL BILIRUBIN,[1],0.3 mg/dL
same,TOTAL PROTEIN,[1],5.9 G/DL
same,URIC ACID,[1],1.7 mg/dL
same,ABSOLUTE BASOPHIL,[2],0 CELLS/uL
same,ABSOLUTE EOSINOPHIL,[2],0 CELLS/uL
same,ABSOLUTE LYMPHOCYTE,[2],7973.67 CELLS/uL
same,ABSOLUTE MONOCYTE,[2],130.33 CELLS/uL
same,ABSOLUTE SEGMENTED NEUTROPHIL,[2],596 CELLS/uL
same,BASOPHIL,[2],0%
same,EOSINOPHIL,[2],0%
same,ERYTHROCYTE COUNT,[2],5.11 x10E6/uL
same,HEMATOCRIT,[2],32.07%
same,HEMOGLOBIN,[2],12.17 G/DL
same,LEUKOCYTE COUNT,[2],8.7 x10E3/uL
same,LYMPHOCYTE,[2],92%
same,MEAN CORPUSCULAR HEMOGLOBIN,[2],23.8 pg
same,MEAN CORPUSCULAR HEMOGLOBIN CONCENTRATION,[2],37.97 G/DL
same,MEAN CORPUSCULAR VOLUME,[2],62.73 fL
same,MONOCYTE,[2],1.33%
same,NEUTROPHIL,[2],6.67%
same,NUCLEATED RED BLOOD CELLS,[2],0 /100WBC
same,PLATELET COUNT,[2],1158.67 x10E3/uL
same,ALANINE AMINOTRANSFERASE,[2],71.33 u/L
same,ALBUMIN,[2],4.07 G/DL
same,ALKALINE PHOSPHATASE,[2],536.33 u/L
same,ASPARTATE AMINOTRANSFERASE,[2],84.33 u/L
same,BLOOD UREA NITROGEN,[2],11 mg/dL
same,CARBON DIOXIDE,[2],29.33 mmol/L
same,CHLORIDE,[2],104.33 MEQ/L
same,CHOLESTEROL,[2],73 mg/dL
same,CREATINE PHOSPHOKINASE,[2],243 u/L
same,CREATININE,[2],0.1 mg/dL
same,GLUCOSE,[2],158.33 mg/dL
same,LACTATE DEHYDROGENASE,[2],88 u/L
same,LIPASE,[2],8.67 u/L
same,PHOSPHORUS,[2],11.53 mg/dL
same,POTASSIUM,[2],6.14 MEQ/L
same,SODIUM,[2],147.17 MEQ/L
same,TOTAL BILIRUBIN,[2],0.6 mg/dL
same,TOTAL PROTEIN,[2],5.77 G/DL
same,URIC ACID,[2],1.13 mg/dL
same,ABSOLUTE BASOPHIL,[3],0 CELLS/uL
same,ABSOLUTE EOSINOPHIL,[3],83.33 CELLS/uL
same,ABSOLUTE LYMPHOCYTE,[3],14410.33 CELLS/uL
same,ABSOLUTE MONOCYTE,[3],288.33 CELLS/uL
same,ABSOLUTE SEGMENTED NEUTROPHIL,[3],1718 CELLS/uL
same,BASOPHIL,[3],0%
same,EOSINOPHIL,[3],0.67%
same,ERYTHROCYTE COUNT,[3],6.37 x10E6/uL
same,HEMATOCRIT,[3],38.63%
same,HEMOGLOBIN,[3],14 G/DL
same,LEUKOCYTE COUNT,[3],16.5 x10E3/uL
same,LYMPHOCYTE,[3],87%
same,MEAN CORPUSCULAR HEMOGLOBIN,[3],21.97 pg
same,MEAN CORPUSCULAR HEMOGLOBIN CONCENTRATION,[3],36.2 G/DL
same,MEAN CORPUSCULAR VOLUME,[3],60.67 fL
same,MONOCYTE,[3],1.67%
same,NEUTROPHIL,[3],10.67%
same,NUCLEATED RED BLOOD CELLS,[3],0 /100WBC
same,PLATELET COUNT,[3],1299.67 x10E3/uL
same,ALANINE AMINOTRANSFERASE,[3],72 u/L
same,ALBUMIN,[3],4.13 G/DL
same,ALKALINE PHOSPHATASE,[3],446.67 u/L
same,ASPARTATE AMINOTRANSFERASE,[3],99.33 u/L
same,BLOOD UREA NITROGEN,[3],13.67 mg/dL
same,CARBON DIOXIDE,[3],27.67 mmol/L
same,CHLORIDE,[3],101 MEQ/L
same,CHOLESTEROL,[3],39 mg/dL
same,CREATINE PHOSPHOKINASE,[3],886.67 u/L
same,CREATININE,[3],0.13 mg/dL
same,GLUCOSE,[3],164 mg/dL
same,LACTATE DEHYDROGENASE,[3],219.67 u/L
same,LIPASE,[3],7.67 u/L
same,PHOSPHORUS,[3],11.07 mg/dL
same,POTASSIUM,[3],6.28 MEQ/L
same,SODIUM,[3],141.1 MEQ/L
same,TOTAL BILIRUBIN,[3],0.4 mg/dL
same,TOTAL PROTEIN,[3],5.87 G/DL
same,URIC ACID,[3],1.47 mg/dL
